The IC50 is the midpoint of a concentration-inhibition curve.

Where only a bound is given, the exact number is not on record here.

From patent US8735414B2 (priority 2009, dated 2014) come the findings set out here.

For the test, the system named is bicistronic HCV replicon (replicon RNA, GenBank Accession No. AJ242654). Nature of the test: HCV Replicon Assay. Type of test: cell-based. As to conditions: Hepatitis C virus, 72 h, read-out: Replicon IC50. In general terms: In antiviral work, replicon cells carry a viral genome segment that copies itself.
Consider `Cc1cc2c(cc1F)cc(-c1ccc(S(=O)(=O)N[C@@H](C)C(F)(F)F)cn1)n2-c1ccc(C#N)o1` [compound 1060, 6-[1-(5-cyanofuran-2-yl)-5-fluoro-6-methyl-1H-indol-2-yl]-N-[(2S)-1,1,1-trifluoropropan-2-yl]pyridine-3-sulfonamide], for which the half-maximal inhibitory concentration (IC50) was 2 to 5 µM.

Take `C[C@H](NS(=O)(=O)c1ccc(-c2c(C#N)c3cc(F)ccc3n2C2CCC2)nc1)C(F)(F)F` [compound 434, 6-(3-cyano-1-cyclobutyl-5-fluoro-1H-indol-2-yl)-N-[(2S)-1,1,1-trifluoropropan-2-yl]pyridine-3-sulfonamide]: the IC50 was under 0.5 µM.

For the compound `Cc1cc2c(cc1F)c(Cl)c(-c1ccc(S(=O)(=O)N[C@@H](C)C(F)(F)F)cn1)n2-c1nncs1` [compound 972, 6-[3-chloro-5-fluoro-6-methyl-1-(1,3,4-thiadiazol-2-yl)-1H-indol-2-yl]-N-[(2S)-1,1,1-trifluoropropan-2-yl]pyridine-3-sulfonamide], the IC50 was in the range of 2 to 5 µM.

As to `CCS(=O)(=O)Nc1ccc(-c2c(C#N)c3ccc(OCC(F)(F)F)cc3n2CC2CC2)cn1` [compound 290, N-{5-[3-cyano-1-(cyclopropylmethyl)-6-(2,2,2-trifluoroethoxy)-1H-indol-2-yl]pyridin-2-yl}ethanesulfonamide], the half-inhibitory concentration (IC50) was 2 to 5 µM.

On to `CCc1cc2c(cc1F)c(C(N)=O)c(-c1ccc(S(=O)(=O)N[C@@H](C)C(F)(F)F)cn1)n2-c1ccncn1` [compound 1041, 6-ethyl-5-fluoro-1-(pyrimidin-4-yl)-2-(5-{[(2S)-1,1,1-trifluoropropan-2-yl]sulfamoyl}pyridin-2-yl)-1H-indole-3-carboxamide], for which the half-maximal inhibitory concentration (IC50) was under 0.5 µM.

On to `CC1(NS(=O)(=O)c2ccc(-c3c(C#N)c4cc(CC(F)F)ccc4n3C3CCC3)nc2)CC1` [compound 696, 6-[3-cyano-1-cyclobutyl-5-(2,2-difluoroethyl)-1H-indol-2-yl]-N-(1-methylcyclopropyl)pyridine-3-sulfonamide], for which the IC50 is under 0.5 µM.

As for `CCc1cc2c(cc1F)c(C#N)c(-c1ccc(S(=O)(=O)N[C@@H](C)C(F)(F)F)cn1)n2-c1ncc(F)cn1` [compound 946, 6-[3-cyano-6-ethyl-5-fluoro-1-(5-fluoropyrimidin-2-yl)-1H-indol-2-yl]-N-[(2S)-1,1,1-trifluoropropan-2-yl]pyridine-3-sulfonamide], the half-maximal inhibitory concentration (IC50) was under 0.5 µM.

Take `COC(=O)c1csc(-n2c(-c3ccc(S(=O)(=O)N[C@@H](C)C(F)(F)F)cn3)c(C#N)c3cc(F)c(C)cc32)n1` [compound 986, methyl 2-[3-cyano-5-fluoro-6-methyl-2-(5-{[(2S)-1,1,1-trifluoropropan-2-yl]sulfamoyl}pyridin-2-yl)-1H-indol-1-yl]-1,3-thiazole-4-carboxylate]: the IC50 is under 0.5 µM.

Take `N#Cc1c(-c2ccc(S(=O)(=O)NC(CF)CF)cn2)n(C2CCCC2)c2cc(O)c(F)cc12` [compound 575, 6-(3-cyano-1-cyclopentyl-5-fluoro-6-hydroxy-1H-indol-2-yl)-N-(1,3-difluoropropan-2-yl)pyridine-3-sulfonamide]: the IC50 was under 0.5 µM.

In the case of `Cc1ccc2c(C#N)c(-c3ccc(S(=O)(=O)N[C@H](C)C(F)(F)F)cn3)n(-c3ccccn3)c2c1` [compound 671, 6-[3-cyano-6-methyl-1-(pyridin-2-yl)-1H-indol-2-yl]-N-[(2R)-1,1,1-trifluoropropan-2-yl]pyridine-3-sulfonamide], the IC50 was under 0.5 µM.

As for `CCc1cc2c(cc1F)c(C#N)c(-c1ccc(S(=O)(=O)NC(C)(C)C(F)(F)F)cn1)n2-c1ncccn1` [compound 859, 6-[3-cyano-6-ethyl-5-fluoro-1-(pyrimidin-2-yl)-1H-indol-2-yl]-N-(1,1,1-trifluoro-2-methylpropan-2-yl)pyridine-3-sulfonamide], the IC50 is 0.5 to 2 µM.

For the compound `Cc1cc2c(cc1F)c(C#N)c(-c1ccc(S(=O)(=O)N[C@@H](C)C(F)(F)F)cn1)n2-c1ccc(F)cn1` [compound 742, 6-[3-cyano-5-fluoro-1-(5-fluoropyridin-2-yl)-6-methyl-1H-indol-2-yl]-N-[(2S)-1,1,1-trifluoropropan-2-yl]pyridine-3-sulfonamide], the IC50 was under 0.5 µM.

For `CCc1cc2c(cc1F)c(C#N)c(-c1ccc(S(=O)(=O)N[C@H](C)C(F)(F)F)cn1)n2-c1ccccn1` [compound 879, 6-[3-cyano-6-ethyl-5-fluoro-1-(pyridin-2-yl)-1H-indol-2-yl]-N-[(2R)-1,1,1-trifluoropropan-2-yl]pyridine-3-sulfonamide], the IC50 is under 0.5 µM.

As for `C[C@H](N(C(F)F)S(=O)(=O)c1ccc(-c2c(C#N)c3cc(F)c(OC(F)F)cc3n2C2CCC2)nc1)C(F)(F)F` [compound 712, 6-[3-cyano-1-cyclobutyl-6-(difluoromethoxy)-5-fluoro-1H-indol-2-yl]-N-(difluoromethyl)-N-[(2S)-1,1,1-trifluoropropan-2-yl]pyridine-3-sulfonamide], the IC50 was in the range of 2 to 5 µM.

In the case of `C[C@H](C1CC1)n1c(-c2ccc(NS(=O)(=O)C(C)(C)C)nc2)c(C(=O)O)c2cc(F)c(OC(F)F)cc21` [compound 1084, 2-{6-[(tert-butylsulfonyl)amino]pyridin-3-yl}-1-[(1R)-1-cyclopropylethyl]-6-(difluoromethoxy)-5-fluoro-1H-indole-3-carboxylic acid], the half-inhibitory concentration (IC50) was under 0.5 µM.

As for `CC(C)NS(=O)(=O)c1cnc(-c2c(C#N)c3ccc(CC(F)F)cc3n2CC2CC2)nc1` [compound 620, 2-[3-cyano-1-(cyclopropylmethyl)-6-(2,2-difluoroethyl)-1H-indol-2-yl]-N-(propan-2-yl)pyrimidine-5-sulfonamide], the IC50 is under 0.5 µM.

For `Cc1cc2c(cc1F)c(C#N)c(-c1ncc(S(=O)(=O)N[C@@H](C)C(F)(F)F)cn1)n2C1CCOCC1` [compound 753, 2-[3-cyano-5-fluoro-6-methyl-1-(tetrahydro-2H-pyran-4-yl)-1H-indol-2-yl]-N-[(2S)-1,1,1-trifluoropropan-2-yl]pyrimidine-5-sulfonamide], the concentration for half-maximal inhibition (IC50) is under 0.5 µM.

Consider `C[C@H](NS(=O)(=O)c1ccc(-c2c(C#N)c3ccc(OC(F)(F)F)cc3n2C2CCCCC2)nc1)C(F)(F)F` [compound 459, 6-[3-cyano-1-cyclohexyl-6-(trifluoromethoxy)-1H-indol-2-yl]-N-[(2S)-1,1,1-trifluoropropan-2-yl]pyridine-3-sulfonamide], for which the concentration for half-maximal inhibition (IC50) is under 0.5 µM.

As to `CCc1cc2c(cc1F)c(C#N)c(-c1ccc(S(=O)(=O)NC3(C(F)(F)F)CC3)cn1)n2-c1ncccn1` [compound 864, 6-[3-cyano-6-ethyl-5-fluoro-1-(pyrimidin-2-yl)-1H-indol-2-yl]-N-[1-(trifluoromethyl)cyclopropyl]pyridine-3-sulfonamide], the IC50 is under 0.5 µM.

Turning to `C[C@@H](C1CC1)n1c(-c2ccc(NS(=O)(=O)C(C)(C)C)nc2)c(C(=O)O)c2cc(F)c(OC(F)F)cc21` [compound 1080, 2-{6-[(tert-butylsulfonyl)amino]pyridin-3-yl}-1-[(1S)-1-cyclopropylethyl]-6-(difluoromethoxy)-5-fluoro-1H-indole-3-carboxylic acid], the IC50 lay in the range of 0.5 to 2 µM.

For the compound `C=CCc1cc2c(cc1F)cc(-c1ccc(S(=O)(=O)N[C@@H](C)C(F)(F)F)cn1)n2-c1ncccn1` [compound 969, 6-[5-fluoro-6-(prop-2-en-1-yl)-1-(pyrimidin-2-yl)-1H-indol-2-yl]-N-[(2S)-1,1,1-trifluoropropan-2-yl]pyridine-3-sulfonamide], the concentration for half-maximal inhibition (IC50) was under 0.5 µM.

`Cc1c(F)c(OC(F)F)cc2c1c(C#N)c(-c1ccc(S(=O)(=O)N[C@@H](C)C(F)(F)F)cn1)n2C1CCC1` [compound 810, 6-[3-cyano-1-cyclobutyl-6-(difluoromethoxy)-5-fluoro-4-methyl-1H-indol-2-yl]-N-[(2S)-1,1,1-trifluoropropan-2-yl]pyridine-3-sulfonamide]: the IC50 is under 0.5 µM.

As to `[2H][C@@](C)(NS(=O)(=O)c1ccc(-c2c(C#N)c3cc(F)c(C)cc3n2C2CCC2)nc1)C(F)(F)F` [compound 1113, 6-(3-cyano-1-cyclobutyl-5-fluoro-6-methyl-1H-indol-2-yl)-N-[(2S)-1,1,1-trifluoro(2-deuterium)propan-2-yl]pyridine-3-sulfonamide], the concentration for half-maximal inhibition (IC50) was under 0.5 µM.

In the case of `COc1cc2c(cc1F)c(C#N)c(-c1ccc(S(=O)(=O)N[C@@H](C)C(F)(F)F)cn1)n2C1CCC1` [compound 725, 6-(3-cyano-1-cyclobutyl-5-fluoro-6-methoxy-1H-indol-2-yl)-N-[(2S)-1,1,1-trifluoropropan-2-yl]pyridine-3-sulfonamide], the IC50 is under 0.5 µM.

In the case of `N#Cc1c(-c2ccc(S(=O)(=O)NC(CF)CF)cn2)n(C2CCCC2)c2ccc(Cl)cc12` [compound 72, 6-(5-chloro-3-cyano-1-cyclopentyl-1H-indol-2-yl)-N-(1,3-difluoropropan-2-yl)pyridine-3-sulfonamide], the half-inhibitory concentration (IC50) is under 0.5 µM.

On to `CCc1cc2c(cc1F)c(C(N)=O)c(-c1ccc(S(=O)(=O)N[C@@H](C)C(F)(F)F)cn1)n2-c1ncccc1Cl` [compound 1042, 1-(3-chloropyridin-2-yl)-6-ethyl-5-fluoro-2-(5-{[(2S)-1,1,1-trifluoropropan-2-yl]sulfamoyl}pyridin-2-yl)-1H-indole-3-carboxamide], for which the IC50 was 0.5 to 2 µM.

In the case of `Cc1ccc2c(c1)c(C(N)=O)c(-c1ccc(S(=O)(=O)N[C@@H](C)C(F)(F)F)cn1)n2-c1ncccn1` [compound 846, 5-methyl-1-(pyrimidin-2-yl)-2-(5-{[(2S)-1,1,1-trifluoropropan-2-yl]sulfamoyl}pyridin-2-yl)-1H-indole-3-carboxamide], the half-inhibitory concentration (IC50) is under 0.5 µM.

With `Cc1ccc2c(C#N)c(-c3ccc(S(=O)(=O)N[C@@H](C)C4CC4)cn3)n(CC3CC3)c2c1` [compound 237, 6-[3-cyano-1-(cyclopropylmethyl)-6-methyl-1H-indol-2-yl]-N-[(1S)-1-cyclopropylethyl]pyridine-3-sulfonamide], the 50% inhibitory concentration (IC50) was under 0.5 µM.

With `C[C@H](NS(=O)(=O)c1ccc(-c2c(C#N)c3cc(F)c(OC(F)F)cc3n2C2CCC2)nc1)C(F)(F)F` [compound 549, 6-[3-cyano-1-cyclobutyl-6-(difluoromethoxy)-5-fluoro-1H-indol-2-yl]-N-[(2S)-1,1,1-trifluoropropan-2-yl]pyridine-3-sulfonamide], the IC50 was under 0.5 µM.
